“Also recorded” adds a separate entry of the source.
Key:
Format in all cases: cell-based
[1] = tested on: platelet clumps in LiHep blood samples; assay: Platelet count per field of view in blood smears of LiHep blood, Azure B stain; settings: for recovery of platelet counts: FIG. 3, fingerstick LiHep blood, vortexed, Azure B
Protocol: A series of anti-coagulants are tested for their respective effect in reversing platelet clumping formed in blood samples. Fresh fingerstick blood samples were collected into EDTA and LiHep blood collection tubes as described above. Concentrated EDTA was dried for at least one hour at room temperature in microcentrifuge tubes using a vacuum drying oven. Immediately following collection, a 200 uL fraction of the LiHep sample (“LiHep+EDTA”) was passed through two separate EDTA SAFE-T-FIL™ capillary tubes for a double exposure to the EDTA anticoagulant resulting in a final concentration of about 8.8 mM EDTA in blood Another 200 uL fraction (“LiHep+TruEDTA”) was added to the previously prepared vacuum-dried EDTA resulting in a final concentration of 20 mM EDTA in blood. At 30 minutes post collection, another 200 uL fraction of the LiHep sample (“LiHep+EDTA 30 min”) was passed through two separate EDTA SAFE-T-FILL™ capillary tubes for a double exposure to the EDTA anticoagulant. All samples were pulse vortexed with three, five-second bursts at the maximum vortex setting immediately following addition to EDTA. At 30 minutes post collection, all samples were then stained using an Azure B solution from the Differential Quik Stain™ Kit (Modified Giemsa) from Polysciences, Inc. Azure B was added to blood sample at a 1:1 ratio and pipette mixed. A standard blood smear was performed on all samples. Cells were imaged using the bright field setting on an Echo Revolve™ microscope at 20× magnification. Between six to seven different fields of view were captured. Images were analyzed using Image J and the number of platelets present in each field of view was manually counted. Error bars indicate standard deviation of the data set.
Particularly, fresh fingerstick blood samples were collected into EDTA and LiHep blood collection tubes as described above. Concentrated EDTA was dried for at least one hour at room temperature in microcentrifuge tubes using a vacuum drying oven. […] Images were analyzed using Image J and the number of platelets present in each field of view was manually counted. […]

white blood cells = assay: White blood cell morphology, AO stain, fluorescence microscopy; settings: FIG. 2, fingerstick LiHep blood, 60 M EDTA, 3×EDTA sample 60 mM
Protocol: Next, it was examined whether EDTA exposure impacts blood cell morphology. Particularly, fresh fingerstick blood samples were collected into EDTA and LiHep blood collection tubes. Concentrated EDTA was dried for at least one hour at room temperature in microcentrifuge tubes using a vacuum drying oven. A 200 uL fraction of the LiHep sample (“1×”) was added to the previously prepared vacuum-dried EDTA resulting in a final concentration of 20 mM EDTA in blood. Another 200 uL fraction of the LiHep sample (“3×”) was added to the previously prepared vacuum-dried EDTA resulting in a final concentration of 60 mM EDTA in blood. […] Cells were imaged using the fluorescence setting on an Echo Revolve microscope. […] To capture the green fluorescence of AO, which labeled the nuclei of white blood cells, a blue LED light source with excitation filter at 470/40 nm was paired with emission filter at 525/50 nm, with a dichroic mirror at 495 nm. To capture the red fluorescence of AO, which labeled the cytoplasmic compartments of white blood cells, the same blue LED light source was paired with emission filter at 635/60 nm with a dichroic mirror at 600 nm. […]
Particularly, fresh venipuncture blood samples were collected into EDTA and LiHep blood collection tubes as described above. […] Cells were imaged using the fluorescence setting on an Echo Revolve™ microscope. […]

[2] = tested on: platelets in venipuncture and fingerstick blood; assay: Platelet clumping after blood collection into anticoagulant tubes; settings: venipuncture and fingerstick blood collected in anticoagulant tubes
From the text: Blood used in the following examples came from either venipuncture or fingerstick samples. Standard phlebotomy practices were followed to collect donor venipuncture blood in either BD Vacutainer′ EDTA blood collection tubes or BD Vacutainer′ PST lithium heparin plasma separation blood collection tubes. Standard phlebotomy practices were followed to collect donor fingerstick blood in either LiHep SAFE-T-FILL™ tubes or EDTA SAFE-T-FIL™tubes. All blood samples were stored at room temperature until use. Samples were analyzed within 12 hours of blood collection.
Platelet clumping appeared to occur spontaneously following blood collection. For all studies, an EDTA control sample was used in which blood from either venipuncture or fingerstick were collected into EDTA tubes. EDTA venipuncture control samples were collected into EDTA blood collection tubes from the same donor using the same port as the lithium heparin samples.

[3] = tested on: platelet clumps in LiHep blood samples; assay: Platelet count per field of view in blood smears of LiHep blood, acridine orange (AO) stain; settings: for declumping activity / increase in platelet count due to reversal of platelet clumping: Example 8, FIG. 7 and 8, LiHep blood
Protocol: Particularly, fresh venipuncture blood samples were collected into EDTA and LiHep blood collection tubes as described above. Concentrated EDTA was dried for at least one hour at room temperature in microcentrifuge tubes using a vacuum drying oven. […] This sample was pulse vortexed with three, ten second bursts at the maximum vortex setting. […] This sample was sonicated in a water bath sonicator for 1 minute. […] This sample was pipette mixed using a Tecan Carvo Omni™ automated pipettor. To mix, 150 uL of sample was aspirated and dispensed at 1 mL/s 0.5 mm from the bottom of the tube. This mixing cycle was repeated 30 times. All samples were then stained using an acridine orange (AO). AO was added to blood sample at a final concentration of 10 ug/mL, pipette mixed and incubated for 5 minutes at room temperature. A standard blood smear was performed on all samples. A coverslip was placed on top of the sample immediately following the blood smear to prevent sample drying out. Cells were imaged using the fluorescence setting on an Echo Revolve™ microscope. AO is a pH-sensitive cationic dye. When bound to double-stranded DNA (for example, in the nuclear compartment), the dye fluoresces green with an excitation maximum at 502 nm and emission maximum at 525 nm. When bound to single stranded DNA and RNA (for example, in the cytoplasm) or when the dye is in an acidic environment (for example, in lysosomes), the dye fluoresces red with an excitation maximum at 460 nm and emission maximum at 650 nm. […] Between five to eight different fields of view were captured. Images were analyzed using Image J and the number of platelets present in each field of view was manually counted. Error bars indicate standard deviation of the data set.
Particularly, fresh venipuncture blood samples were collected into EDTA and LiHep blood collection tubes as described above. Concentrated EDTA was dried for at least one hour at room temperature in microcentrifuge tubes using a vacuum drying oven. […] Both samples were pulse vortexed with three, ten-second bursts at the maximum vortex setting. Samples were then stained using acridine orange (AO). AO was added to blood sample at a final concentration of 10 ug/mL, pipette mixed and incubated for 5 minutes at room temperature. A standard blood smear was performed on all samples. A coverslip was placed on top of the sample immediately following the blood smear to prevent sample drying out. Cells were imaged using the fluorescence setting on an Echo Revolve™ microscope. AO is a pH-sensitive cationic dye. When bound to double-stranded DNA (for example, in the nuclear compartment), the dye fluoresces green with an excitation maximum at 502 nm and emission maximum at 525 nm. When bound to single stranded DNA and RNA (for example, in the cytoplasm) or when the dye is in an acidic environment (for example, in lysosomes), the dye fluoresces red with an excitation maximum at 460 nm and emission maximum at 650 nm. […] Between five to seven different fields of view were captured. Images were analyzed using Image J and the number of platelets present in each field of view was manually counted. Error bars indicate standard deviation of the data set.
To investigate the ability of citric acid to reverse platelet clumping, venipuncture blood samples were collected into EDTA and LiHep blood collection tubes as described above. […] A second 15 μL fraction of LiHep blood was treated with citric acid at a final concentration of 5 mM. To encourage platelet declump, samples were then vortexed. Samples were stained using acridine orange and imaged using an Echo Revolve™ Microscope at 20× magnification. Images were analyzed using Image J and the number of platelets present in each field of view (FOV) across 10 FOVs was manually counted.
Venipuncture blood samples were collected into EDTA and LiHep blood collection tubes as described above. A 15 μL aliquot of LiHep blood was treated with 5 mM NTA an vortexed vigorously.

`O=C(O)CN(CCN(CC(=O)O)CC(=O)O)CC(=O)O` [EDTA, ethylenediaminetetraacetic acid] was tested, and the “recovery of platelet counts” value ([1]; 17.6 mM EDTA (LiHep+EDTA)) was “greater than 40%”, the “recovery of platelet counts” value ([1]; 20 mM EDTA (LiHep+TruEDTA)) was “greater than 40%” and the “reversed platelet clumping as compared to control groups” value ([1]; FIG. 3 legend, blood collected in LiHep tubes) was “about 40%”. The “morphology of white blood cells” value (white blood cells) was “negatively impact” and the “platelet clumping following blood collection” value [2] was “no detectible platelet clumping”.

In the case of `O=C(O)CN(CC(=O)O)CC(=O)O` [NTA, N,N-bis(carboxymethyl)glycine], the “declumping activity / increase in platelet count due to reversal of platelet clumping” value (“declumping activity / increase” below) [3] is reported as “showed declumping activity; also recorded: increase in platelet count” and the recovery of platelets ([3]; FIG. 8, venipuncture LiHep blood, 5 mM NTA, vortexed vigorously, 10 FOVs) is reported as 71%.

For `O=C(O)CC(O)(CC(=O)O)C(=O)O` [citric acid, 2-hydroxypropane-1,2,3-tricarboxylic acid], the “declumping activity / increase” value [3] was “increase in platelet count”, the “declumping activity / increase” value ([3]; listed as Citric acid) was “showed declumping activity” and the “recovery of platelet counts” value ([3]; FIG. 7, venipuncture LiHep blood, citric acid 5 mM, vortexed, 10 FOVs) was 66%.

With Lithium heparin the “platelet clumping following blood collection” value [2] was “Significant amount of platelet clumping”.
